The values below come from patent publication US6737425B1, “N,N-substituted cyclic amine derivatives” (Eisai Co., Ltd., priority 1998, dated 2004).

For assay [1], the system named is rat model with occlusion in the middle cerebral artery. Description: Effect (II) of reducing infarct volume in a rat model with occlusion in the middle cerebral artery (permanent occlusion). It is filed as in vivo. The note with it: for Infarct volume in the cerebral cortex, Mean: from two hours after occlusion, 6 hours, 24 hours after occlusion. The method, then: Effect (II) of Reducing Infarct volume in a Rat Model with Occlusion in the Middle Cerebral Artery
The typical example of the compound of the present invention (the compound in Example 1) was compared with compounds disclosed in JP 8-508037-A (WO 94/25469, U.S. Pat. No. 5,750,525), which have affinity for AMPA receptors and is effective against cellular necrosis after ischemia in anoxia and hypocalcemia.
The compound of the present invention was dissolved in physiological saline to be adjusted to a dosage of 10 or 20 mg/kg/h just before use.
The control compound was dissolved in physiological saline to be adjusted to a dosage of 3 mg/kg/h just before use.
Occlusion in the middle cerebral artery was conducted according to the method described above. However, the middle cerebral artery was permanently occluded without removing the nylon embolus.
Two hours after the middle cerebral artery was occluded, a syringe containing the medium or the sample (10 or 20 mg/kg/h) was attached to a catheter for intravenous administration, and half (0.31 ml) of the dosage to be infused for 1 hour was intravenously administered for 1 minute. Thereafter, the medium or the sample was administered continuously for 6 hours at a rate of 0.616 ml/h by the use of a syringe pump for infusion. During administration and for 2 hours after administration was finished, the temperature of the rectum was maintained in the range of 37.0 to 38.5° C. in a system for controlling body temperature. After the body temperature control was finished, the animal was returned to a cage and maintained for 1 day in a breeding room.
Two hours after the middle cerebral artery was occluded, a syringe containing the medium or the sample (3 mg/kg/h) was attached to a catheter for intravenous administration, and the medium or the sample was administered continuously for 6 hours at a rate of 0.616 ml/h by means of the syringe pump for infusion. During administration and for 2 hours after administration was finished, the temperature of the rectum was maintained in the range of 37.0 to 38.5° C. in the system for controlling body temperature. After the body temperature control was finished, the animal was returned to a cage and maintained for 1 day in a breeding room.
The middle cerebral artery was permanently occluded by the nylon embolus, and the infarct volume was measured 24 hours after the occlusion was conducted.

Assay [2] has as its system mice in a formalin test. In words: Antalgic effect (II) on mice in a formalin test (comparison with morphine and indomethacin). The note with it: for average left hind leg-licking time, Mean: formalin 5 minutes later. It is filed as in vivo. The method, then: Antalgic Effect (II) on Mice in a Formalin Test
The typical example of the compound of the present invention (the compound in Example 1) was compared with morphine and indomethacin in the same manner as in Pharmacological Experimental Example 5 above.
20.4 mg of the compound of the present invention was weighed, and 10.2 ml of 5.28% mannitol was added thereto to prepare 2 mg/ml (20 mg/kg) solution. Then, 3.8 ml of 5.28% mannitol was added to 3.8 ml of the 2 mg/ml solution to prepare 1 mg/ml (10 mg/kg) solution. Finally, 2.5 ml of 5.28% mannitol was added to 2.5 ml of the 1 mg/ml solution to prepare 0.5 mg/ml (5 mg/kg) solution. The test compound was weighed and prepared on the day when the experiment was conducted.
b-1) Morphine 17.0 mg of morphine purchased as a reagent was weighed, and 5.67 ml physiological saline was added thereto to form 3 mg/ml (30 mg/kg) solution. Then, 2.6 ml physiological saline was added to 1.3 ml of the 3 mg/ml solution to prepare 1 mg/ml (10 mg/kg) solution. Finally, 2.1 ml physiological saline was added to 0.9 ml of the 1 mg/ml solution to prepare 0.3 mg/ml (3 mg/kg) solution. The test compound was weighed and prepared on the day when the experiment was conducted.
12.9 mg of indomethacin purchased as a reagent was weighed, and 12.9 ml of 0.5% methyl cellulose (MC) was added thereto to form 1 mg/ml (10 mg/kg) suspension. Then, 2.24 ml of 0.5% MC was added to 0.96 ml of the 1 mg/ml suspension to prepare 0.3 mg/ml (3 mg/kg) suspension. Finally, 1.6 ml of 0.5% MC was added to 0.8 ml of the 0.3 mg/ml suspension to prepare 0.1 mg/ml (1 mg/kg) suspension. The test compound was weighed and prepared on the day when the experiment was conducted.
The treatment group by the compound of the present invention consisted of 4 groups in total, that is, a control group, a 5 mg/kg compound administration group, a 10 mg/kg compound administration group, and a 20 mg/kg compound administration group, and each group consisted of 5 animals.
The control group was given 0.1 ml of 5.28% mannitol per 10 g of the body weight via the tail vein. The compound of the present invention was administered via the tail vein at each concentration (0.5 mg/ml, 1 mg/ml, and 2 mg/ml) in an volume of 0.1 ml per 10 g of the body weight into the 5 mg/kg group, 10 mg/kg group and 20 mg/kg group, respectively.
The treatment group by morphine consisted of 4 groups in total, that is, a control group, a 3 mg/kg morphine administration group, a 10 mg/kg morphine administration group, and a 30 mg/kg morphine administration group, and each group consisted of 5 animals.
The control group was orally given 0.1 ml of physiological saline per 10 g of the body weight. Morphine was orally administered at each concentration (0.3 mg/ml, 1 mg/ml, and 3 mg/ml) in a volume of 0.1 ml per 10 g of the body weight into the 3 mg/kg group, 10 mg/kg group and 30 mg/kg group, respectively.
The treatment group by indomethacin consisted of 4 groups in total, that is, a control group, a 1 mg/kg indomethacin administration group, a 3 mg/kg indomethacin administration group, and a 10 mg/kg indomethacin administration group, and each group consisted of 5 animals.
The control group was orally given 0.1 ml of 0.5% MC per 10 g of the body weight. Indomethacin was orally administered at each concentration (0.1 mg/ml, […], and 1 mg/ml) in a volume of 0.1 ml per 10 g of the body weight into the 1 mg/kg group, 3 mg/kg group and 10 mg/kg group, respectively.
5.28% mannitol was administered via the tail vein into each group given the compound of the present invention or into the control group, and the animals were placed in a transparent plastic observation cage. 5 minutes later, 20 μl of 3% formalin was subcutaneously administered into the bottom of the left hind leg of each mouse. The duration of the behavior of mouse's licking the left hind leg after administration of formalin was measured for 5 minutes and used as an indication of pain. The duration was expressed in second. […]

“And” between values parts separate entries of the source, which are not always exact repeats. Equal entries are not always repeated.

Regarding `CC(C)C(C#N)(CCCN1CCN(CCOc2ccc(F)cc2)CC1)c1ccccc1` (centres unmarked) [Example 1, 1-[(4-Cyano-5-methyl-4-phenyl)hexyl]-4-[2-(4-fluorophenoxy)ethyl]piperazine], the figures for the “degree of reduction of the infarct volume” value in assay [1] (10 mg/kg/h i.v.) and in assay [1] (20 mg/kg/h i.v.) were 15% and 30%, respectively. The “Infarct volume in the cerebral cortex, Mean” value in assay [1] (10 mg/kg/h i.v. (table: 10 mg/kg)) was 260.7±13.1 mm^3 and 260.7 mm^3; in assay [1] (20 mg/kg/h i.v. (table: 20 mg/kg)), 215.4±21.3 mm^3 and 215.4 mm^3. In addition, the “average left hind leg-licking time, Mean” value in assay [2] (5 mg/kg i.v. (tail vein)) is 49.4 s; in assay [2] (10 mg/kg i.v. (tail vein)), 23.6 s; in assay [2] (20 mg/kg i.v. (tail vein)) it was 2.2 s. Besides, in assay [2] (overall conclusion of the comparison), the “antalgic effect in the formalin test” value was “excellent effect similar to that of morphine”.
